Results as given in ChEMBL document CHEMBL1156829 (Proc Natl Acad Sci U S A, 2008).

Columns and labels:
Plasmodium falciparum [1] = assay: NOVARTIS: Inhibition of Plasmodium falciparum W2 (drug-resistant) proliferation in erythrocyte-based infection assay; assay type: functional, organism-based; conditions: Plasmodium falciparum, W2; read-out: EC50
Plasmodium falciparum [2] = assay: NOVARTIS: Inhibition of Plasmodium falciparum 3D7 (drug-susceptible) proliferation in erythrocyte-based infection assay; assay type: functional, organism-based; conditions: Plasmodium falciparum, 3D7
[3] = NOVARTIS: Cytotoxicity against human hepatocellular carcinoma cell line (Huh7); assay type: toxicity, cell-based, Huh-7; conditions: Huh7 cells (hepatocellular carcinoma cell line)

Row | Compound | EC50 (Plasmodium falciparum [1]) [nM] | EC50 (Plasmodium falciparum [2]) [nM] | CC50 [3] [nM]
1 | O=[N+]([O-])c1ccc(C=NNc2nc(Nc3ccccc3)nc(Nc3ccccc3)n2)o1 | 454 | 625 | 20700
2 | CCN1CCN(c2cc(C)c3cc(NC(=O)c4ccc(OC)c([N+](=O)[O-])c4)ccc3n2)CC1 | 344 | 273 | 15400
3 | COc1ccc(-c2cc(C(F)(F)F)n3ncc(C(=O)Nc4cc(C)ccc4O)c3n2)cc1OC | 2130 | 3350 | > 100000
4 | CCN1CCN(c2cc(C)c3cc(NC(=O)c4cncc(Br)c4)ccc3n2)CC1 | 411 | 265 | 19400
5 | CC(C)(C)CC(C)(C)Nc1c(-c2ccccc2OC(=O)c2ccccc2)nc2ccccn12 | 26.8 | 1070 | > 1260
6 | CC(Cc1ccccc1Sc1ccccc1O)N(C)C (stereo not given) | 722 | 2040 | 34000
7 | COc1ccccc1NC1=CC(=NS(=O)(=O)c2ccccc2)c2ccccc2C1=O | 288 | 224 | 13600
8 | CC1CN(C(=O)CCCSc2nnc(Cc3ccccc3)n2-c2ccc(Cl)c(Cl)c2)CC(C)O1 (stereo not given) | 2230 | > 12500 | > 100000
9 | Cc1ccc(NC(=O)c2sc3nc4c(c(-c5cccs5)c3c2N)CCCC4)cc1 | 2220 | 442 | > 100000
10 | CC(C)NC(=O)c1cn(Cc2ccccc2)cc(C(=O)NCCc2nc3ccccc3[nH]2)c1=O | 2220 | 3340 | > 100000
11 | Fc1cccc(Nc2nc(NCC3CCCO3)c3ccccc3n2)c1 (stereo not given) | 203 | 142 | 9580
12 | O=C(NN=Cc1ccncc1)c1cc(-c2cccc([N+](=O)[O-])c2)[nH]n1 | 2120 | > 8130 | > 100000
13 | CN1C=CC=C/C1=C\C=C1\C=Nc2ccccc21 | 223 | 276 | > 10000
14 | c1ccc(-c2cc(N3CCC4(CC3)OCCO4)nc(-c3ccccn3)n2)nc1 | 223 | 420 | > 10000
15 | CCCN1CCC(N2C[C@@H](NCCC3=C(C)CCCC3(C)C)C[C@H]2C(=O)NCC)CC1 | 765 | 2340 | 35100
16 | Cc1c[nH]c(CCNCc2ccc(OCC(O)CN(C)Cc3ccccc3)cc2)n1 (stereo not given) | 1190 | 1480 | 54800
17 | CC1=C(CC(=O)c2ccc(Cl)cc2)C(=O)c2ccccc2C1=O | 1020 | 2740 | 46600
18 | COc1ccc2nc(C)cc(Nc3cccc(Cl)c3)c2c1 | 1100 | 371 | 50200
19 | O=C(Nc1ccc(-c2nc3ccccc3[nH]2)cc1)c1ccccc1Oc1ccccc1 | 2140 | 1580 | > 100000
20 | CC12CCC(CN(CC(O)Cn3c4ccc(Br)cc4c4cc(Br)ccc43)C1)C2(C)C (stereo not given) | 2200 | 2960 | > 100000
21 | O=C(Cn1ccc(=NCc2ccccc2)cc1)c1ccc(I)cc1 | 448 | 308 | 20800
22 | COC1=CC(=O)c2c(ccc3cc(O)ccc23)C1=O | 215 | 767 | > 10000
23 | Cn1c(SCC(=O)Nc2cccc(F)c2)nc2c(c1=O)SCC2 | 2150 | 2380 | > 100000
24 | CN(CCCNc1ccnc2cc(Cl)ccc12)C(=O)c1ccc2c(c1)OCO2 | 214 | 249 | > 10000
25 | CCOc1cc(/C=C(\C#N)c2nc3ccccc3[nH]2)ccc1OCc1ccccc1C#N | 214 | > 1120 | > 10000
26 | CCOc1ccccc1NC(=O)Nc1ccc2nc(N3CCN(C)CC3)cc(C)c2c1 | 456 | 1160 | 21400
27 | C[n+]1cccc(CNC2=C(Cl)C(=O)c3ccccc3C2=O)c1 | 213 | 127 | > 10000
28 | C(#Cc1ccccc1)CN(Cc1ccccn1)Cc1ccccn1 | 300 | 1560 | > 14100

Row | Compound | EC50 (Plasmodium falciparum [1]) [nM] | EC50 (Plasmodium falciparum [2]) [nM] | CC50 [3] [nM]
29 | c1ccc2c(c1)c1c(c3ccccc32)CN2CCCC2C1 (stereo not given) | 221 | 120 | > 10000
30 | Cc1ccc(Nc2nc(NCc3ccccc3)c3ccccc3n2)cc1 | 241 | 184 | 10900
31 | CCN(CC)C/C=C/C1(O)c2ccccc2-c2ccccc21 | 221 | 1010 | > 10000
32 | CN(CCCNc1ccnc2cc(Cl)ccc12)C(=O)c1ccc(F)cc1 | 212 | 127 | > 10000
33 | CCOc1ccc(NC(=O)NC(Cc2c[nH]c3ccccc23)C(=O)N2CCN(C(=O)NC(C)C)C(C)C2)cc1 (stereo not given) | 223 | 259 | > 10000
34 | CC1=C(CC(=O)c2ccccc2)C(=O)c2ccccc2C1=O | 300 | 2660 | 13800
35 | Cc1ccc(/C=C/c2ccc3ccccc3[n+]2C)cc1 | 217 | 131 | > 10000
36 | Cc1cc(C)c2cc(CN(CCN(C)C)C(=S)NCCCN(C)C)c(=O)[nH]c2c1 | 2150 | 2010 | > 100000
37 | CN1CCN(c2nc(NCCNc3ccc([N+](=O)[O-])cc3)c3ccccc3n2)CC1 | 424 | 537 | 19000
38 | O=C(Nc1cccnc1)c1cc(-c2cccnc2)nc2ccc(Br)cc12 | 2140 | > 12500 | > 100000
39 | CCOC(=O)c1cccc(OC(=O)c2ccccc2)c1 | 2120 | > 7670 | > 100000
40 | CCN(CC)c1nc(-c2cccnc2)nc2ccccc12 | 1600 | 5640 | 72200
41 | CSCCN1CCc2ccc3[nH]cc(-c4cccc(Cl)c4)c3c2C1 | 224 | 108 | > 10000
42 | CCC(=O)Oc1ccccc1-c1nc2ccccn2c1NC(C)(C)CC(C)(C)C | 34.9 | 743 | 1650
43 | COc1cc[n+](OC(=O)N2CCCCC2)c(C)c1 | 810 | 188 | 36600
44 | O=c1cc(C(F)(F)F)c2cc(Cl)c(O)cc2o1 | 2120 | > 12500 | > 100000
45 | O=C(c1cccc(F)c1)N1CCN(Cc2ccncc2)CC1 | 2170 | > 9940 | > 100000
46 | Cc1ccn2c(NC(C)(C)CC(C)(C)C)c(-c3ccccc3OC(=O)C34CC5CC(CC(C5)C3)C4)nc2c1 | 214 | 788 | > 10000
47 | c1ccc2c(c1)ccc1cc3cccc[n+]3cc12 | 795 | 1380 | 37000
48 | Cc1ccc(NC(=O)c2ccc(NCCCN3CCCCCC3)c([N+](=O)[O-])c2)cc1F | 371 | 94.1 | 16900
49 | Cc1ccccc1N1C(=O)C2C3c4ccccc4C(C(=O)O)(c4ccccc43)C2C1=O (stereo not given) | 2190 | > 12500 | > 100000
50 | Cc1ccc(Nc2nc(NCCO)c3ccccc3n2)cc1C | 108 | 175 | 4900
51 | COc1cccc(CN2CCc3nc(N4CCCCC4)sc3C2)c1 | 216 | 520 | > 10000
52 | COc1ccc2ccccc2c1C1CC(=O)N2CN(Cc3ccco3)CSC2=C1C#N (stereo not given) | 2180 | 3320 | > 100000
53 | CCOC(=O)c1nnn(-c2nonc2-n2cccc2)c1CN1CCCCC1 | 2210 | 2430 | > 100000
54 | Cc1ccccc1Cn1c(N2CCC(C(=O)NCc3ccccn3)CC2)nc2ccccc21 | 2160 | 1940 | > 100000
55 | CC(C)=CCCC1=CCC(CNCCCN(C)C)C(C)C1 (stereo not given) | 415 | 1750 | 18900
